What was measured:
[1] = tested on: mouse peritoneal macrophages; experiment: IFN-β secretion by mouse peritoneal macrophages (ELISA); format: cell-based; details: 4 hours
Description: Thioglycollate-elicited macrophages were recovered 4 days after i.p. injection of 2 ml BBL thioglycollate medium, brewer modified (4% wt/vol; BD Biosciences) by peritoneal lavage with 5 ml phosphate buffered saline (PBS). The peritoneal macrophages were cultured in DMEM cell culture medium [DMEM containing 10% vol/vol FBS (Gemini Bio Products), 1% vol/vol penicillin and streptomycin (Life Technologies)] at 37° C. and 95% air/5% CO2.
(§1) Cells were seeded onto 96-well plates at 1×10^5 cells per well and stimulated with a Diprovocim (dissolved in DMSO, and final DMSO concentrations (0.2%) were kept constant in all experiments) for 4 h. Mouse TNF, IL-6, or IFN-β, or human TNF in the supernatants were measured by ELISA kits according to the manufacturer's instructions (eBioscience and PBL Assay Science). Pretreatment with 20 μg/ml anti-TLR1, anti-TLR2 or isotype control antibody (eBioscience) was for 1 hour. Unless otherwise indicated, mouse cells were from wild type C57BL/6J mice.

[2] = tested on: mouse BMDC; experiment: IL-6 production by mouse BMDC (ELISA); format: cell-based; details: 4 hours
Description: (§2) For murine BMDCs, bone morrow cells were cultured in Petri dishes in 10 ml DMEM cell culture medium containing 10 ng/ml of murine GM-CSF (R&D Systems). On day 3 of culture, this was replaced with fresh GM-CSF medium. Loosely adherent cells were transferred to a fresh Petri dish and cultured for an additional 4 d. Human PBMC were purchased from Stemcell Technologies. THP-1 (ATCC) cells were differentiated by treatment with 100 nM PMA (Sigma) in RPMI cell culture medium [RPMI containing 10% vol/vol FBS (Gemini Bio Products), 1% penicillin and streptomycin (Life Technologies)] for 24 hours. After that, cells were washed with PBS and cultured in fresh RPMI cell culture medium for 24 hours before use in studies.
as §1

[3] = tested on: mouse BMDC; experiment: TNF production by mouse bone marrow-derived dendritic cells (ELISA); format: cell-based; details: 4 hours, read-out: EC50, dose-dependent TNF production
Description: as §2, §1

[4] = tested on: mice; experiment: In vivo adjuvant activity and toxicity in mice when co-injected with an immunogen; details: compared with LPS administration
[5] = tested on: OVA peptide-pulsed target cells; experiment: In vivo CTL killing assay; parameters: species or system mouse; details: Tlr1−/− or Tlr2−/− mice
[6] = tested on: MAPK and canonical NF-κB signaling; experiment: Western blotting of mouse peritoneal macrophage lysates; format: cell-based; details: mouse peritoneal macrophages, 500 nM
Description: Mouse peritoneal macrophages or human THP-1 cells (1×10^6 per well) were stimulated in 12-well plates with a Diprovocim at 500 nM for mouse cells or 5 nM for human cells for the indicated times and lysed directly in sample buffer (Sigma). Cell lysates were separated by SDS-PAGE and transferred to nitrocellulose membranes. Membranes were probed with the following antibodies: phospho-IKKα (Ser176)/IKKβ (Ser177), IκBα, phospho-p38 (Thr180/Tyr182), phospho-JNK (Thr183/Tyr185), phospho-ERK1/2 (Thr202/Tyr204) (Cell Signaling Technology) and β-Actin (Sigma).

[7] = tested on: B16-OVA melanoma; experiment: B16-OVA melanoma, post-tumor treatment (immunization day 3 after tumor inoculation); format: in vivo, mouse; details: post-tumor treatment
Description: C57BL/6J mice (n=8 mice per treatment) were injected s.c. with 2×10^5 B16-OVA melanoma cells on day 0. For pre-tumor treatment, mice were immunized i.m. with OVA (100 μg) mixed with vehicle or Diprovocim (10 mg/kg) or alum (2 mg/kg) on the same day prior to tumor injection. Mice received a booster immunization seven days later in which anti-PD-L1 (200 μg) was administered on days 3, 6 and 9 after tumor inoculation by i.p. injection. For post-tumor treatment, initial immunization was on day 3 after tumor inoculation, with a booster seven days later. Anti-PD-L1 (200 μg) was administered on days 3, 6, 9, 12, and 15 after tumor inoculation by i.p. injection. […] P values for tumor volume analysis apply to the final time point as indicated in graphs and were calculated by Student's t test. P values for survival analysis were calculated by Kaplan-Meier analysis. All results are representative of two independent studies.
For post-treatment, 10 mg/kg Diprovocim-1 or 2 mg/kg Alum with OVA (100 μg) was injected i.m. into mice on day 3 after tumor inoculation. Mice received a booster shot seven days after the first immunization. On day 3, 6, 9, 12 and 15 after tumor inoculation, mice were also injected i.p. with 200 μg anti-mPD-L1 in 100 μl saline.
Tumors were measured with a digital caliper (Fisher) and the tumor sizes were calculated using the following formula: volume=0.5×length×width^2. […]

[8] = tested on: B16-OVA melanoma; experiment: B16-OVA melanoma, pre-tumor treatment (immunization on day of tumor inoculation); format: in vivo, mouse
Description: FIG. 4A through FIG. 4J illustrate inhibition of B16-OVA tumor growth by pre- or post-tumor treatment with Diprovocim-adjuvanted tumor vaccination and checkpoint blockade. FIG. 4A provides a schematic of pre- and post-tumor treatment protocols. C57BL/6J mice (n=8 mice per treatment) were injected s.c. with 2×10^5 B16-OVA melanoma cells on day 0. For pre-tumor treatment, mice were immunized i.m. with OVA (100 μg) mixed with vehicle or Diprovocim (10 mg/kg) or alum (2 mg/kg) on the same day prior to tumor injection. Mice received a booster immunization seven days later in which anti-PD-L1 (200 μg) was administered on days 3, 6 and 9 after tumor inoculation by i.p. injection. For post-tumor treatment, initial immunization was on day 3 after tumor inoculation, with a booster seven days later. Anti-PD-L1 (200 μg) was administered on days 3, 6, 9, 12, and 15 after tumor inoculation by i.p. injection. FIG. 4B through FIG. 4F illustrate pre-tumor treatment results. Tumor volume (FIG. 4B and FIG. 4D) and percent mouse survival (survivors/total mice) (FIG. 4C and FIG. 4E). […] FIG. 4G through FIG. 4J illustrate a comparison of pre-tumor (FIG. 4G and FIG. 4H) vs. post-tumor treatment (FIG. 4I and FIG. 4J). Tumor volume (FIG. 4G and FIG. 4I) and percent mouse survival (survivors/total mice) (FIG. 4H and FIG. 4J) are shown. P values for tumor volume analysis apply to the final time point as indicated in graphs and were calculated by Student's t test. P values for survival analysis were calculated by Kaplan-Meier analysis. All results are representative of two independent studies.
C57BL/6J mice (n=8) were injected s.c. with 2×10^5 B16-OVA melanoma cells on day 0. Anti-PD-L1 (200 μg) or mouse IgG2a isotype control antibody was administered on days 3, 6 and 9 after tumor inoculation by i.p. injection. FIG. 8A is a graph of tumor volume versus time and FIG. 8B is a graph showing percent mouse survival (survivors/total mice) versus time. The control values in both plots are shown above those for the anti-PD-L1 values where the two values diverge. […] Results are representative of two independent studies.
B16-OVA cells (B16F10 melanoma cells stably expressing chicken ovalbumin) were grown in DMEM containing 10% vol/vol FBS. A total of 2×10^5 B16-OVA cells in 100 μL PBS were injected s.c. into the right flank of 8-12 week old male C57BL/6J mice to establish tumors (n=8 mice per group). For pretreatment, 10 mg/kg Diprovocim-1 or 2 mg/kg alum with or without OVA (100 μg) was injected i.m. into mice on the same day as tumor inoculation (day 0). Mice received a booster shot seven days after the first immunization. On day 3, 6 and 9, some groups were injected i.p. with 200 μg checkpoint inhibitor (anti-mPD-L1, BioXcell) in 100 μl saline.
Tumors were measured with a digital caliper (Fisher) and the tumor sizes were calculated using the following formula: volume=0.5×length×width^2. Mice were sacrificed when the tumor length or width reached 2 cm.

O=C(N[C@H]1C[C@@H]1c1ccccc1)[C@@H]1CN(C(=O)c2ccc(C(=O)N3C[C@@H](C(=O)N[C@H]4C[C@@H]4c4ccccc4)[C@H](C(=O)N[C@H]4C[C@@H]4c4ccccc4)C3)cc2)C[C@H]1C(=O)N[C@H]1C[C@@H]1c1ccccc1 [Diprovocim-1, (3S,3'S,4S,4'S)-1,1′-Terephthaloylbis(N^3,N^4-bis((1S,2R)-2-phenylcyclo-propyl)pyrrolidine-3,4-dicarboxamide)]
type I IFN (IFN-β) production [1]: failed to stimulate type I IFN production
type I IFN (IFN-β) production ([1]; listed as Diprovocim): does not stimulate IFN-β secretion
IL-6 production [2]: induced IL-6 production
EC50 [3]: 6.7 nM
overt toxicity when used as an adjuvant [4]: did not display the overt toxicity
adjuvant activity in CTL killing in TLR1- and/or TLR2-deficient mice [5]: abrogated
phosphorylation of signaling proteins and IκBα degradation [6]: induced phosphorylation of IκKα, IKKβ, p38, JNK, and ERK, as well as degradation of IκBα
effect on tumor growth, survival rate, and survival time compared with alum [7]: superior to that of alum
tumor growth or mouse survival ([8]; Diprovocim alone (no OVA) combined with anti-PD-L1 treatment): no effect
effect on tumor growth, survival rate, and survival time compared with alum ([8]; pre-tumor treatment): superior to that of alum
tumor growth rates and survival times compared with vehicle alone ([8]; single agent, no anti-PD-L1, i.m. day 0 and booster day 7): similar

Reference: patent publication US20210315992A1, “ADJUVANT EFFECT OF THE TLR1/2 AGONIST DIPROVOCIM SYNERGIZES WITH CHECKPOINT-INHIBITING ANTIBODIES TO ELIMINATE DISEASE” (The Board of Regents of the University of Texas System, priority 2018, published 2021)
